Results published in US10323063B2, “Advanced macromolecule transduction domain (aMTD) sequences for improvement of cell-permeability, polynucleotides encoding the same, method to identify the unique features of aMTDs comprising the same, method to develop the aMTD sequences comprising the same” (CELLIVERY THERAPEUTICS, INC., priority 2014, dated 2019).

Tested on: RAW 264.7 cells
Assay: Quantitative cell-permeability of FITC-labeled aMTD- or rPeptide-fused CRA recombinant proteins by flow cytometry
Format: cell-based
Details: for Relative Ratio to aMTD AVE: cell-permeability of rPeptide relative to the average of 240 aMTDs
From the text: The aMTDs and rPeptides were fluorescently labeled and compared based on the critical factors for cell-permeability by using flow cytometry and confocal laser scanning microscopy (FIG. 5 to 8). The cellular uptake of the peptide-fused non-functional cargo recombinant proteins could quantitatively be evaluated in flow cytometry, while confocal laser scanning microscopy allows intracellular uptake to be assessed visually. The analysis included recombinant proteins fused to a negative control [rP38] that has opposite characteristics (hydrophilic and aromatic sequence: YYNQSTCGGQCY) to the aMTDs (hydrophobic and aliphatic sequences). Relative cell-permeability (relative fold) of aMTDs to the negative control was also analyzed (TABLE 39 and FIG. 9).
Geometric means of negative control (histidine-tagged rP38-fused CRA recombinant protein) subtracted by that of naked protein (histidine-tagged CRA protein) lacking any peptide (rP38 or aMTD) was standardized as relative fold of 1.
For quantitative cell-permeability, the aMTD- or rPeptide-fused recombinant proteins were conjugated to fluorescein isothiocyanate (FITC) according to the manufacturer's instructions (Sigma-Aldrich, St. Louis, Mo.). RAW 264.7 cells were treated with 10 μM FITC-labeled recombinant proteins for 1 hour at 37° C., washed three times with cold PBS, treated with 0.25% tripsin/EDTA (Sigma-Aldrich, St. Louis, Mo.) for 20 minutes at 37° C. to remove cell-surface bound proteins. Cell-permeability of these recombinant proteins were analyzed by flow cytometry (Guava, Millipore, Darmstadt, Germany) using the FlowJo cytometric analysis software (FIG. 5 to 6). The relative cell-permeability of aMTDs were measured and compared with the negative control (rP38) and reference hydrophobic CPPs (MTM12 and MTD85) (TABLE 47).

[1] = cell-permeability of aMTD-fused CRA recombinant protein relative to negative control rP38 (A type)
[2] = cell-permeability relative to reference CPP MTD85 (C type)
[3] = cell-permeability relative to reference CPP MTM12 (B type)
[4] = cell-permeability of aMTD-fused CRA recombinant protein relative to negative control (A: rP38)
[5] = cell-permeability of aMTD-fused CRA recombinant protein relative to reference CPP (B: MTM12)
[6] = cell-permeability of aMTD-fused CRA recombinant protein relative to reference CPP (C: MTD85)

Substance	Relative Ratio (Fold) A [1]	Relative Ratio (Fold) C [2]	Relative Ratio (Fold) B [3]	Relative Ratio to aMTD AVE	Relative Ratio (Fold) A [4]	Relative Ratio (Fold) B [5]	Relative Ratio (Fold) C [6]
22 (AVVLVPVLAAAP; Advanced Macromolecule Transduction Domain (aMTD) Sequences for Improvement of Cell-Permeability) [compound 22]	3.1 Fold	1.1 Fold	2.1 Fold	–	–	–	–
23 (VVLVLPAAAAVP; Advanced Macromolecule Transduction Domain (aMTD) Sequences for Improvement of Cell-Permeability) [compound 23]	4.0 Fold	1.3 Fold	2.6 Fold	–	–	–	–
42 (VAALPVVAVVAP; Advanced Macromolecule Transduction Domain (aMTD) Sequences for Improvement of Cell-Permeability) [compound 42]	2.5 Fold	0.8 Fold	1.7 Fold	–	–	–	–
44 (ALAVPVALLVAP; Advanced Macromolecule Transduction Domain (aMTD) Sequences for Improvement of Cell-Permeability) [compound 44]	1.6 Fold	0.5 Fold	1.1 Fold	–	–	–	–
49 (VVPAAPAVPVVP) [compound 49]	–	–	–	0.18	–	–	–
57 (QNNCNTSSQGGG) [compound 57]	–	–	–	0.06	–	–	–
63 (AALLVPALVAVP; Advanced Macromolecule Transduction Domain (aMTD) Sequences for Improvement of Cell-Permeability) [compound 63]	1.9 Fold	0.7 Fold	1.3 Fold	–	–	–	–
81 (AALLPALAALLP; Advanced Macromolecule Transduction Domain (aMTD) Sequences for Improvement of Cell-Permeability) [compound 81]	6.9 Fold	2.3 Fold	4.6 Fold	–	–	–	–
101 (LVALAPVAAVLP; Advanced Macromolecule Transduction Domain (aMTD) Sequences for Improvement of Cell-Permeability) [compound 101]	4.5 Fold	1.5 Fold	3.0 Fold	–	–	–	–
102 (LALAPAALALLP; Advanced Macromolecule Transduction Domain (aMTD) Sequences for Improvement of Cell-Permeability) [compound 102]	1.4 Fold	0.5 Fold	0.9 Fold	–	–	–	–
103 (ALIAAPILALAP; Advanced Macromolecule Transduction Domain (aMTD) Sequences for Improvement of Cell-Permeability) [compound 103]	2.1 Fold	0.7 Fold	1.4 Fold	–	–	–	–
104 (AVVAAPLVLALP; Advanced Macromolecule Transduction Domain (aMTD) Sequences for Improvement of Cell-Permeability) [compound 104]	7.3 Fold	2.5 Fold	4.9 Fold	–	–	–	–
123 (AAIIVPAALLAP; Advanced Macromolecule Transduction Domain (aMTD) Sequences for Improvement of Cell-Permeability) [compound 123]	2.9 Fold	1.0 Fold	2.0 Fold	–	–	–	–
144 (VLAIVPAVALAP; Advanced Macromolecule Transduction Domain (aMTD) Sequences for Improvement of Cell-Permeability) [compound 144]	8.8 Fold	3.0 Fold	5.9 Fold	–	–	–	–
162 (AVVALPAALIVP; Advanced Macromolecule Transduction Domain (aMTD) Sequences for Improvement of Cell-Permeability) [compound 162]	8.2 Fold	2.8 Fold	5.5 Fold	–	–	–	–
163 (LALVLPAALAAP; Advanced Macromolecule Transduction Domain (aMTD) Sequences for Improvement of Cell-Permeability) [compound 163]	4.1 Fold	1.4 Fold	2.4 Fold	–	–	–	–
164 (LAAVLPALLAAP; Advanced Macromolecule Transduction Domain (aMTD) Sequences for Improvement of Cell-Permeability) [compound 164]	8.2 Fold	2.8 Fold	5.5 Fold	–	–	–	–
165 (ALAVPVALAIVP; Advanced Macromolecule Transduction Domain (aMTD) Sequences for Improvement of Cell-Permeability) [compound 165]	–	–	–	–	19.8 Fold	13.2 Fold	6.7 Fold
204 (LIAALPAVAALP; Advanced Macromolecule Transduction Domain (aMTD) Sequences for Improvement of Cell-Permeability) [compound 204]	2.2 Fold	0.8 Fold	1.5 Fold	–	–	–	–
205 (ALALVPAIAALP; Advanced Macromolecule Transduction Domain (aMTD) Sequences for Improvement of Cell-Permeability) [compound 205]	2.6 Fold	0.9 Fold	1.7 Fold	–	–	–	–
224 (ILAAVPIALAAP; Advanced Macromolecule Transduction Domain (aMTD) Sequences for Improvement of Cell-Permeability) [compound 224]	–	–	–	–	15.8 Fold	10.6 Fold	5.3 Fold
285 (AIVLLPAAVVAP; Advanced Macromolecule Transduction Domain (aMTD) Sequences for Improvement of Cell-Permeability) [compound 285]	–	–	–	–	–	8.9 Fold	–
363 (AVLAVAPALIVP; Advanced Macromolecule Transduction Domain (aMTD) Sequences for Improvement of Cell-Permeability) [compound 363]	–	–	–	–	14.7 Fold	9.8 Fold	4.9 Fold
442 (ALAALVPAVLVP; Advanced Macromolecule Transduction Domain (aMTD) Sequences for Improvement of Cell-Permeability) [compound 442]	–	–	–	–	–	13.6 Fold	–
481 (AIAIAIVPVALP; Advanced Macromolecule Transduction Domain (aMTD) Sequences for Improvement of Cell-Permeability) [compound 481]	–	–	–	–	34.3 Fold	23.0 Fold	11.6 Fold
484 (LAVVLAAPAIVP; Advanced Macromolecule Transduction Domain (aMTD) Sequences for Improvement of Cell-Permeability) [compound 484]	–	–	–	–	15.6 Fold	–	–
501 (VIVALAVPALAP; Advanced Macromolecule Transduction Domain (aMTD) Sequences for Improvement of Cell-Permeability) [compound 501]	–	–	–	–	–	–	7.3 Fold
